Data published in US10940150B2, “Thymine derivatives and quinazoline-dione derivatives for the inhibition of HSP27” (TECHNISCHE UNIVERSITAET DRESDEN, priority 2014, dated 2021).

Key:
RPMI-8226 cells [1] = assay: Development of resistance to bortezomib in RPMI-8226 cells; format: cell-based
U937 cells = assay: Development of resistance to bortezomib in U937 cells; format: cell-based; conditions: bortezomib 0.1-0.5 ng/ml + 0.75 μmol/L test substance (FIG. 11a)
Experimental: For this purpose, U937 cells (histiocytic lymphoma) were cultured in DMEM culture medium (+10% FCS) at 37° C., 5% CO2 in an H2O-saturated atmosphere. 100,000 cells/ml were seeded and incubated with the cytostatic agent bortezomib (0.1 ng/ml) and the respective test substance (dosage in the current experiment: 1 μM/L acepromazine). The reference substance, BVDU, was employed at a concentration of 30 μM/L. The cells were in each case passaged before the cell count reached 1,000,000 cells/ml. At each passage, 100,000 cells/ml were again seeded and the dose of the cytostatic agent bortezomib was increased stepwise (0.1 ng/mL or 0.05 ng/mL). The concentration of the test substances remained constant. As a result of the stepwise increase in the dosage of the cytostatic agent, resistance developed in the U937 cells. The development of resistance is prevented or inhibited in the case of a positively tested HSP27 inhibitor. The experiments from Example 6 were repeated in the same way, wherein U937 cells (histiocytic lymphoma) are cultured in DMEM culture medium (+10% FCS) at 37° C., 5% CO2 in an H2O-saturated atmosphere. 100,000 cells/ml were seeded and incubated with an initial concentration of 0.2 ng/ml of the cytostatic agent bortezomib and both without an inhibitor and with acepromazine as an HSP27 inhibitor at a concentration of 1 μM/L. The reference substance, BVDU, was employed at a concentration of 30 μM/L. The cells were passaged in each case before the cell count reached 1,000,000 cells/ml. At each passage, 100,000 cells/ml were again seeded and the dose of the cytostatic agent bortezomib was increased stepwise by 0.1 ng/mL. The concentration of the test substance and the reference substance remained constant. As a result of the stepwise increase in the dosage of the cytostatic agent, resistance developed in the U937 cells. The development of resistance is prevented or inhibited in the case of a positively tested HSP27 inhibitor. The cell line U-937 is a histiocytic lymphoma (DSMZ ACC 5). This cell line also responds to treatment with bortezomib, expresses HSP27 and develops resistance to bortezomib. Bortezomib is not the standard therapy for this lymphoma, but is being discussed as a possible therapeutic agent. U-937 cells were seeded with a cell count of 100,000 cells/ml in each case and regularly passaged. […] At the end of the experiment, 70,000 living cells per ml medium could be detected. For the treatment with 30 μmol/L BVDU, a final cell count of 250,000 cells/ml was detected whereas the final cell count in the culture without the addition of an HSP27 inhibitor amounted to 450,000 cells/ml. As a control, U-937 cells were treated with the respective test substances alone, FIG. 10b.

HSP27 [2] = molecular target: T1, HSP27 (Homo sapiens, UniProt P04792); assay: Capillary electrophoresis of heat-denatured citrate synthase protein precipitates; format: biochemical; conditions: for times higher activity than BVDU for the inhibition of the HSP27 protein / Efficacy compared with BVDU: 10 μmol/L vs 750 μmol/L BVDU; for times higher activity than BVDU for the inhibition of the HSP27 protein / Rel. quantity of protein prec. CS: 43° C. for 120 minutes; for Rel. quantity of protein prec. CS: 10 μmol/L; for BVDU equivalent dose: based on 100 mg BVDU
T1 sequence (P04792 whole entry): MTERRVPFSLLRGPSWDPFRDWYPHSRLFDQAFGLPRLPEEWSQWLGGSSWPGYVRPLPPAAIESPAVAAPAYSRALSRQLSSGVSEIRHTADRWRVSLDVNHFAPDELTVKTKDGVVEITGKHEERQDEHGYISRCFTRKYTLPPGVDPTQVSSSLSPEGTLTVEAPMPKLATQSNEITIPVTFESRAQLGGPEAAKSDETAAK
Experimental: (§1) Since the heat-denatured protein aggregates of the citrate synthase from Example 1 are not water-soluble, these can be separated completely from the supernatant by means of centrifugation at room temperature at 16,000×g, 10 min. By using capillary electrophoresis, the compositions of the separated precipitates can be shown and quantified. The relative quantity of protein of precipitated citrate synthase serves as a measure of the efficacy of the test substances.
(§2) In each case, 481 nmol/L HSP27 and 1.44 μmol/L citrate synthase in 40 mmol/L HEPES buffer, pH 7.4, were employed. The relative quantity of protein of the precipitated citrate synthase in each case was normalized using a defined quantity of BSA as internal standard. The relative quantity of protein that precipitated when using 750 μmol/L BVDU was set at 1. The other test substances (2 representatives of phenothiazine derivatives of general formula (V), 2 representatives of purine derivatives of formula (I) or (II)) were each employed at a concentration of 10 μmol/L.
as §1, with “Example 2” for “Example 1”
as §2, with “nM” for “nmol/L”, “thymine” for “purine”, “were” for “were each”, “μmol/L in each case.” for “μmol/L.”
Otherwise, the experiments were performed as described above: […]

HSP27 [3] = molecular target: T1, HSP27; assay: Bio-layer interferometry binding to HSP27; conditions: wet-chemical experiments
Excerpt: Bio-layer interferometry is a technique for detecting biomolecular interactions. It is an analytical technique that measures the optical interference of white light which is reflected by two surfaces: in each case, one surface consists of a layer of the immobilized target protein on the tip of the biosensor and one is an internal reference surface. The binding of ligands to the target protein alters the interference pattern and can be measured in real time.
For the measurements, an instrument of the ForteBio Octet Red 384 brand was used. The target protein HSP27 was biotinylated and bound to the appropriate sensors (SSA). […]
For measurements by bio-layer interferometry, biotinylated HSP27 protein was first bound to Super-Streptavidin sensors (SSA, Fortebio). […] In the case of a specific binding to HSP27 of the analyte to be measured, the loaded HSP27 sensor generates a stronger signal (response) than the concurrent reference sensor. After the “baseline” has been established by incubation with the reaction buffer (PBST 0.1% Tween 20 plus 3% DMSO), first the association and then the dissociation of the respective analyte is measured in real time. The analytes were measured in increasing concentrations in each case: 1.23-3.7-11.11-33.33-100-300 μM/l.

RPMI-8226 cells [4] = assay: Development of resistance to bortezomib in RPMI-8226 cells; format: cell-based; remark: listed apart in the source
Experimental: The cell line RPMI-8226 (DMSZ 402) is a “multiple myeloma” cell line and was chosen because bortezomib is employed as a standard therapy for multiple myeloma. RPMI-8226 cells respond to bortezomib, express HSP27 and develop resistance to Velcade. RPMI-8226 cells were seeded at a cell count of 100,000 cells/ml in each case and regularly passaged. […] In contrast, for RPMI 8226 cells that were treated with 30 μmol/L BVDU, a final cell count of 160,000 cells/ml was detected whereas the final cell count for the culture without the addition of an HSP27 inhibitor amounted to 350,000 cells/ml. As a control, RPMI 8226 cells were treated with the respective test substances alone, FIG. 4b.

HSP27 [5] = molecular target: T1, HSP27; assay: Spectrophotometric protein aggregation assay (citrate synthase, HSP27 chaperone function); format: biochemical; conditions: for effect on chaperone function of HSP27 (CS aggregation) relative to 750 μmol/L BVDU: 43° C., 500 nm
Experimental: FIG. 1: a spectrophotometric protein aggregation assay at 43° C., a wavelength of 500 nm and a concentrations of the proteins: 1.44 μmol/L citrate synthase (CS), 481 nmol/L HSP27 (HSP) in a 40 mmol/L HEPES buffer (pH 7.4) during treatment with 14 or 28 μmol/L 2-(3-trichlorovinylphenylamino)-1,9-dihydropurin-6-one (CS+HSP+test substance no. 2), with 750 μmol/L BVDU (CS+HSP+BVDU) and without (CS+HSP; reference);
To measure the efficacy of the purine derivatives according to the invention, robust experiments for the chaperone function of the HSP27 protein were performed:
A known client protein (=substrate on which HSP27 acts as a chaperone) of HSP27 is citrate synthase. Citrate synthase is denatured when the temperature increases to 43° C. This heat denaturation is prevented or delayed by the presence of HSP27 [Jakob U, 1993]. By adding the novel active ingredients, their efficacy can thus be measured through the inhibition of the HSP27 chaperone function.
To determine the activity (i.e. the effect on the aggregation behaviour of the citrate synthase (CS) after thermal incubation) of 2-(3-trichlorovinylphenylamino)-1,9-dihydropurin-6-one in comparison to BVDU, four different batches containing 1.44 μmol/L CS, 481 nmol/L HSP27 (HSP) in a 40 mmol/L HEPES buffer (pH 7.4) were prepared and BVDU (750 μmol/L) or various concentrations of 2-(3-trichlorovinylphenylamino)-1,9-dihydropurin-6-one (14 μmol/L; 28 μmol/L) were added. The samples were then incubated at 43° C. and the aggregation behaviour of the CS was […] in a spectrometer (PerkinElmer LS55, PerkinElmer Inc.) at a wavelength of 500 nm.
It can be seen from FIG. 1 that the protein citrate synthase (graph CS alone) is denatured by increasing the temperature to 43° C. and forms aggregates. The aggregation is measured in the spectrometer at 500 nm (light scattering by protein aggregates). The presence of HSP27 (HSP) counteracts the aggregation (cf. graph, CS+HSP). Since the addition of the test substances (BVDU and 2-(3-trichlorovinylphenylamino)-1,9-dihydropurin-6-one) inhibits the chaperone function of HSP27, the activity of the respective test substance can be determined by measuring the aggregation behaviour of the CS.

[6] = 43° C. for 120 minutes (Table 1)
[7] = relative to 750 μmol/L BVDU = 1 (Table 1)
[8] = 43° C. for 120 minutes (Table 2)
[9] = relative to 750 μmol/L BVDU = 1 (Table 2)

CCCCc1ccc(Nc2nc3c(ncn3COCCO)c(=O)[nH]2)cc1 [2-(4-butylphenylamino)-9-(2-hydroxyethoxymethyl)-1,9-dihydropurin-6-one]
development of resistance to the cytostatic agent bortezomib (RPMI-8226 cells [1]; bortezomib 0.1-0.3 ng/ml + 1 μM/L test substance (FIG. 6a)): significantly inhibited
living cells at the end of the experiment (RPMI-8226 cells [1]; bortezomib 0.1-0.3 ng/ml + 1 μM/L test substance (FIG. 6a), without HSP27 inhibitor 950,000 cells/ml): 240,000 living cells per ml medium
development of resistance to the cytostatic agent bortezomib (U937 cells): significantly inhibited
living cells at the end of the experiment (U937 cells; without HSP27 inhibitor 450,000 cells/ml): 30,000 living cells per ml medium
times higher activity than BVDU for the inhibition of the HSP27 protein (HSP27 [2]): 69 times
Efficacy compared with BVDU (HSP27 [2]; [6]): 69.0 x
Rel. quantity of protein prec. CS (HSP27 [2]; [7]): 0.92
BVDU equivalent dose (HSP27 [2]): 1.4 mg

CN(C)CCCN1c2ccccc2Sc2ccc(Cl)cc21 [Chlorpromazine, reference compound]
affinity for interaction with HSP27 (HSP27 [3]): only a low affinity
development of resistance to the cytostatic agent bortezomib (RPMI-8226 cells [4]; bortezomib 0.2-0.4 ng/ml + 0.5 μmol/L chlorpromazine (FIG. 5a)): significantly inhibited
living cells at the end of the experiment (RPMI-8226 cells [4]; bortezomib 0.2-0.4 ng/ml + 0.5 μmol/L chlorpromazine (FIG. 5a), without HSP27 inhibitor 350,000 cells/ml): 70,000 living cells per ml medium
Efficacy compared with BVDU (HSP27 [2]; [6]): 79.5 x
Efficacy compared with BVDU (HSP27 [2]; [8]): 79.5 x
Rel. quantity of protein prec. CS (HSP27 [2]; [7]): 1.06
Rel. quantity of protein prec. CS (HSP27 [2]; [9]): 1.06

O=c1[nH]c(Nc2cccc(C(Cl)=C(Cl)Cl)c2)nc2[nH]cnc12 [2-(3-trichlorovinylphenylamino)-1,9-dihydropurin-6-one]
effect on chaperone function of HSP27 (CS aggregation) relative to 750 μmol/L BVDU (HSP27 [5]; 14 μmol/L): comparable effect
effect on chaperone function of HSP27 (CS aggregation) relative to 750 μmol/L BVDU (HSP27 [5]; 28 μmol/L): significantly more pronounced effect
BVDU equivalent dose (HSP27 [5]; based on 100 mg BVDU): less than 1.9 mg
living cells at the end of the experiment (RPMI-8226 cells [1]; bortezomib 0.1-0.3 ng/ml + 1 μmol/L test substance (FIG. 7a), without HSP27 inhibitor 950,000 cells/ml): 270,000 living cells per ml medium
development of resistance to the cytostatic agent bortezomib (RPMI-8226 cells [4]; bortezomib 0.1-0.3 ng/ml + 1 μmol/L test substance (FIG. 7a)): significantly inhibited
times higher activity than BVDU for the inhibition of the HSP27 protein (HSP27 [2]): 53 times
Efficacy compared with BVDU (HSP27 [2]; [6]): 53.25 x
Rel. quantity of protein prec. CS (HSP27 [2]; [7]): 0.71
BVDU equivalent dose (HSP27 [2]): less than 1.9 mg

Cc1cn(CC=CCNC(=O)C2c3ccccc3Oc3ccccc32)c(=O)[nH]c1=O [9H-xanthene-9-carboxylic acid [4-(5-methyl-2,4-dioxo-3,4-dihydro-2H-pyrimidin-1-yl)-but-2-enyl]amide]
living cells at the end of the experiment (RPMI-8226 cells [1]; bortezomib 0.075-0.275 ng/ml + 1 μmol/L test substance (FIG. 8a), without HSP27 inhibitor 510,000 cells/ml): 290,000 living cells per ml medium
development of resistance to the cytostatic agent bortezomib (RPMI-8226 cells [4]; bortezomib 0.075-0.275 ng/ml + 1 μmol/L test substance (FIG. 8a)): significantly inhibited
times higher activity than BVDU for the inhibition of the HSP27 protein (HSP27 [2]): 49 times
Efficacy compared with BVDU (HSP27 [2]; [8]): 48.75 x
Rel. quantity of protein prec. CS (HSP27 [2]; [9]): 0.65
BVDU equivalent dose (HSP27 [2]): less than 2 mg
